# Experimental data: patent US6472348B1, “Pyridone derivatives and herbicides” (Kumiai Chemical Industry Co., Ltd., priority 1996, dated 2002)
# Experiments:
# barnyardgrass (Ec) [1] = assay: Test Example 1: herbicidal effects by paddy field soil treatment; type: in vivo; conditions: 100 g of the active ingredient per 10 ares, 21st day after the application, index 0-5 of Table 47;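 note: grade of growth control; 5 = at least 90%; 4 = 70 to 90%; 3 = 50 to 70%; 2 = 30 to 50%; 1 = 10 to 30%; 0 = under 10%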
# Summary of the method: (§1)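 Herbicidal effect was scored against a graded standard 21 days after treatment. Seeds were sown in puddled, leveled paddy soil flooded to 3 cm depth, and the active ingredient was applied at 100 g per 10 ares before greenhouse culture.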
# bulrush (Sc) = assay: as above; type: in vivo; conditions: 100 g of the active ingredient per 10 ares, 21st day after the application, index 0-5 of Table 47;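 note: grade of growth control; 5 = at least 90%; 4 = 70 to 90%; 3 = 50 to 70%; 2 = 30 to 50%; 1 = 10 to 30%; 0 = under 10%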
# Summary of the method: as §1
# monochoria (Mo) = assay: as above; type: in vivo; conditions: 100 g of the active ingredient per 10 ares, 21st day after the application, index 0-5 of Table 47;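 note: grade of growth control; 5 = at least 90%; 4 = 70 to 90%; 3 = 50 to 70%; 2 = 30 to 50%; 1 = 10 to 30%; 0 = under 10%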
# Summary of the method: as §1
# Digitaria ciliaris (Di) = assay: Test Example 2: herbicidal effects by upland field soil treatment; type: in vivo; conditions: 100 g of the active ingredient per 10 ares, evaluated on the 21st day after application;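 note: grade of growth control; 5 = at least 90%; 4 = 70 to 90%; 3 = 50 to 70%; 2 = 30 to 50%; 1 = 10 to 30%; 0 = under 10%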
# Source text: (§2) (Test on Herbicidal Effects by Upland Field Soil Treatment)
# barnyardgrass (Ec) [2] = assay: as above; type: in vivo; conditions: 100 g of the active ingredient per 10 ares, evaluated on the 21st day after application
# Source text: as §2
# [3] = system: common lambsquarters (Ch); assay: as above; type: in vivo; conditions: 100 g of the active ingredient per 10 ares, evaluated on the 21st day after application
# Source text: as §2
# pale smartweed (Po) [4] = assay: as above; type: in vivo; conditions: 100 g of the active ingredient per 10 ares, evaluated on the 21st day after application
# Source text: as §2
# rice flatsedge (Ci) [5] = assay: as above; type: in vivo; conditions: 100 g of the active ingredient per 10 ares, evaluated on the 21st day after application
# Source text: as §2
# slender amaranth (Am) [6] = assay: as above; type: in vivo; conditions: 100 g of the active ingredient per 10 ares, evaluated on the 21st day after application
# Source text: as §2
# Diaitaria ciliaris (Di) [7] = assay: Test Example 3: herbicidal effects by upland field foliage treatment; type: in vivo; design: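 grade of growth control; 5 = at least 90%; 4 = 70 to 90%; 3 = 50 to 70%; 2 = 30 to 50%; 1 = 10 to 30%; 0 = under 10%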; conditions: 100 g active ingredient per 10 ares, evaluated 14th day after treatment
# Summary of the method: (§3)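 Sowing into sand pots with a 120 cm^2 surface, followed by soil covering and 2 weeks of greenhouse growth, preceded the leaf treatment. Scoring of weed control took place on the 14th day afterwards according to set evaluation criteria.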
# barnyardgrass (Ec) [8] = assay: as above; type: in vivo; design: scale not given here; conditions: 100 g active ingredient per 10 ares, evaluated 14th day after treatment
# Summary of the method: as §3
# [9] = system: common lambsquarters (Ch); assay: as above; type: in vivo; design: scale not given here; conditions: 100 g active ingredient per 10 ares, evaluated 14th day after treatment
# Summary of the method: as §3
# pale smartweed (Po) [10] = assay: as above; type: in vivo; design: scale not given here; conditions: 100 g active ingredient per 10 ares, evaluated 14th day after treatment
# Summary of the method: as §3
# rice flatsedge (Ci) [11] = assay: as above; type: in vivo; design: scale not given here; conditions: 100 g active ingredient per 10 ares, evaluated 14th day after treatment
# Summary of the method: as §3
# slender amaranth (Am) [12] = assay: as above; type: in vivo; design: scale not given here; conditions: 100 g active ingredient per 10 ares, evaluated 14th day after treatment
# Summary of the method: as §3
# cotton (Go) = assay: Test Example 4: crop plant selectivity by upland field soil treatment (cotton), phytotoxicity; type: in vivo; design: scale not given here; conditions: dose 6.3 g ai/10 a, evaluated 21st day after application
# Summary of the method: (§4)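 Weeds and cotton, sown in sand and topped with soil, received a soil-applied treatment. Evaluation after three weeks in a greenhouse followed a standard rating scale.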
# Diaitaria ciliaris (Di) [13] = assay: Test Example 4: crop plant selectivity by upland field soil treatment (cotton), herbicidal effects; type: in vivo; conditions: dose 6.3 g ai/10 a, evaluated 21st day after application
# Experimental: (§5) (Test on Crop Plant Selectivity by Upland Field Soil Treatment)
# In a plastic pot (surface area: 600 cm^2) filled with sand, cotton (Go), Diaitaria ciliaris (Di), green foxtail (Se), pale smartweed (Po), slender amaranth (Am), common lambsquarters (Ch) and China jute (Ab) were sown and covered with soil. […] The plants were then cultured in a green house, and the evaluation of the herbicidal effects and phytotoxicity was conducted on the 21st day after the application in accordance with the standards as identified in Table 47. Symbol—represents “not tested”.
# China jute (Ab) [14] = assay: as above; type: in vivo; design: scale not given here; conditions: dose 6.3 g ai/10 a, evaluated 21st day after application
# Summary of the method: as §4
# [15] = system: common lambsquarters (Ch); assay: as above; type: in vivo; design: scale not given here; conditions: dose 6.3 g ai/10 a, evaluated 21st day after application
# Summary of the method: as §4
# pale smartweed (Po) [16] = assay: as above; type: in vivo; design: scale not given here; conditions: dose 6.3 g ai/10 a, evaluated 21st day after application
# Summary of the method: as §4
# slender amaranth (Am) [17] = assay: as above; type: in vivo; design: scale not given here; conditions: dose 6.3 g ai/10 a, evaluated 21st day after application
# Summary of the method: as §4
# soybean (Gl) = assay: Test Example 6: crop plant selectivity by upland field soil treatment (soybean), phytotoxicity; type: in vivo; design: scale not given here; conditions: dose 6.3 g ai/10a, 21st day after application
# Summary of the method: (§6)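 Seeds are sown in sand and covered with soil. The soil is treated with test compound. Pots are kept in a greenhouse. Weed control and soybean damage are rated visually 21 days after application.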
# Diaitaria ciliaris (Di) [18] = assay: Test Example 6: crop plant selectivity by upland field soil treatment (soybean), herbicidal effects; type: in vivo; conditions: dose 6.3 g ai/10a, 21st day after application
# Experimental: as §5
# (§7) In a plastic pot (surface area: 600 cm^2) filled with sand, soybean (Gl), Diaitaria ciliaris (Di), green foxtail (Se), Johnsongrass (So), pale smartweed (Po), slender amaranth (Am), common lambsquarters (Ch) and China jute (Ab) were sown and covered with soil. […] The plants were then cultured in a green house, and the evaluation of the herbicidal effects and phytotoxicity was conducted on the 21st day after the application in accordance with the standards as identified in Table 47. Symbol—represents “not tested”.
# Johnsongrass (So) = assay: as above; type: in vivo; conditions: dose 6.3 g ai/10a, 21st day after application
# Experimental: as §5, §7
# China jute (Ab) [19] = assay: as above; type: in vivo; design: scale not given here; conditions: dose 6.3 g ai/10a, 21st day after application
# Summary of the method: as §6
# [20] = system: common lambsquarters (Ch); assay: as above; type: in vivo; design: scale not given here; conditions: dose 6.3 g ai/10a, 21st day after application
# Summary of the method: as §6
# pale smartweed (Po) [21] = assay: as above; type: in vivo; design: scale not given here; conditions: dose 6.3 g ai/10a, 21st day after application
# Summary of the method: as §6
# slender amaranth (Am) [22] = assay: as above; type: in vivo; design: scale not given here; conditions: dose 6.3 g ai/10a, 21st day after application
# Summary of the method: as §6
# corn (Ze) = assay: Test Example 11: crop plant selectivity by upland field foliage treatment (corn), phytotoxicity; conditions: corn; foliage treatment; dose 1.6 g ai/10a; evaluated on 14th day after treatment; index per Table 47
# Summary of the method: (§8)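 Corn with pale smartweed, slender amaranth, common lambsquarters and China jute sown in sand-filled pots and grown 2 weeks in a greenhouse before foliage treatment. Herbicidal effect and crop phytotoxicity scored on day 14 after treatment against a rating standard.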
# China jute (Ab) [23] = assay: Test Example 11: crop plant selectivity by upland field foliage treatment (corn), herbicidal effects; type: in vivo; design: scale not given here; conditions: China jute; foliage treatment; dose 1.6 g ai/10a; evaluated on 14th day after treatment; index per Table 47
# Summary of the method: as §8
# [24] = system: common lambsquarters (Ch); assay: as above; type: in vivo; design: scale not given here; conditions: common lambsquarters; foliage treatment; dose 1.6 g ai/10a; evaluated on 14th day after treatment; index per Table 47
# Summary of the method: as §8
# pale smartweed (Po) [25] = assay: as above; type: in vivo; design: scale not given here; conditions: pale smartweed; foliage treatment; dose 1.6 g ai/10a; evaluated on 14th day after treatment; index per Table 47
# Summary of the method: as §8
# slender amaranth (Am) [26] = assay: as above; type: in vivo; design: scale not given here; conditions: slender amaranth; foliage treatment; dose 1.6 g ai/10a; evaluated on 14th day after treatment; index per Table 47
# Summary of the method: as §8
smiles,measurement,setting,value
C#CCOc1cc(-c2cn(C)c(C(F)(F)F)cc2=O)c(F)cc1Cl [Compound 6-9],Herbicidal effects Ec,barnyardgrass (Ec) [1],5
same,Herbicidal effects Sc,bulrush (Sc),5
same,Herbicidal effects Mo,monochoria (Mo),5
same,Herbicidal effects Di,Digitaria ciliaris (Di),5
same,Herbicidal effects Ec,barnyardgrass (Ec) [2],5
same,Herbicidal effects Ch,[3],5
same,Herbicidal effects Po,pale smartweed (Po) [4],5
same,Herbicidal effects Ci,rice flatsedge (Ci) [5],5
same,Herbicidal effects Am,slender amaranth (Am) [6],5
same,Herbicidal effects Di,Diaitaria ciliaris (Di) [7],5
same,Herbicidal effects Ec,barnyardgrass (Ec) [8],5
same,Herbicidal effects Ch,[9],5
same,Herbicidal effects Po,pale smartweed (Po) [10],5
same,Herbicidal effects Ci,rice flatsedge (Ci) [11],5
same,Herbicidal effects Am,slender amaranth (Am) [12],5
same,Phytotoxicity Go,cotton (Go),0
same,Herbicidal effects Di,Diaitaria ciliaris (Di) [13],5
same,Herbicidal effects Ab,China jute (Ab) [14],5
same,Herbicidal effects Ch,[15],5
same,Herbicidal effects Po,pale smartweed (Po) [16],5
same,Herbicidal effects Am,slender amaranth (Am) [17],5
same,Phytotoxicity Gl,soybean (Gl),0
same,Herbicidal effects Di,Diaitaria ciliaris (Di) [18],5
same,Herbicidal effects So,Johnsongrass (So),5
same,Herbicidal effects Ab,China jute (Ab) [19],5
same,Herbicidal effects Ch,[20],5
same,Herbicidal effects Po,pale smartweed (Po) [21],5
same,Herbicidal effects Am,slender amaranth (Am) [22],5
same,Phytotoxicity Ze,corn (Ze),1
same,Herbicidal effects Ab,China jute (Ab) [23],5
same,Herbicidal effects Ch,[24],5
same,Herbicidal effects Po,pale smartweed (Po) [25],5
same,Herbicidal effects Am,slender amaranth (Am) [26],5
